The values that follow come from the NIST ThermoML archive (doi:10.1016/j.tca.2016.01.003).

For data set [1] the following is noted: Crystal; DTA.
Data set [2] can be described thus: Molar enthalpy of transition or fusion. The note with it: Crystal; DSC.

Numbers after ± are expanded uncertainties.

Regarding `CN1C(=O)N[C@H]2NC(=O)N(C)[C@H]21`, the Normal melting temperature in data set [1] was determined as 303 ± 0.6 °C. The “Molar enthalpy of transition or fusion” value in data set [2] turned out to be 10.3 ± 0.239 kcal/mol.
